Results: the supplement of paper PMC10307832

What was measured:
Assay in all cases: relative viability (nuclei count vs DMSO), 5 days (fraction); higher = more cells survive
[1] = compound: CC1=CC=C(C=C1)C(=O)CN2C3=C(CCCC3)SC2=N [Pifithrin_alpha] + Nc1ncn([C@H]2C[C@H](O)[C@@H](CO)O2)c(=O)n1 [Decitabine] (partner 2 µM)
Summary of the method: (§1)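 Lung cancer cell lines in 1536-well plates were dosed by pin tool the day after seeding, either with one drug alone or with a fixed anchor-drug dose plus five library-drug doses (not always all listed) in √10 steps. After 5 days, cells were fixed and their nuclei stained in one step (final 0.05% Triton X-100, 1% formaldehyde, 1 ug/ml Hoechst), then counted on 4× images. Relative viability is the nuclei count in treated wells divided by that in vehicle wells. Values are medians of duplicate plates.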

Axitinib + Bortezomib = compound: CNC(=O)c1ccccc1Sc1ccc2c(/C=C/c3ccccn3)n[nH]c2c1 [Axitinib] + CC(C)C[C@H](NC(=O)[C@H](Cc1ccccc1)NC(=O)c1cnccn1)B(O)O [Bortezomib] (partner 0.002 µM)
Summary of the method: as §1

Axitinib + Foretinib = compound: CNC(=O)c1ccccc1Sc1ccc2c(/C=C/c3ccccn3)n[nH]c2c1 [Axitinib] + COc1cc2c(Oc3ccc(NC(=O)C4(C(=O)Nc5ccc(F)cc5)CC4)cc3F)ccnc2cc1OCCCN1CCOCC1 [Foretinib] (partner 0.25 µM)
Summary of the method: as §1

Cell Line	relative viability ([1]; first compound 1 µM)	relative viability ([1]; first compound 3.162 µM)	relative viability ([1]; first compound 10 µM)	relative viability ([1]; first compound 31.62 µM)	relative viability ([1]; first compound 100 µM)	relative viability (Axitinib + Bortezomib; first compound 0.005 µM)	relative viability (Axitinib + Bortezomib; first compound 0.01581 µM)	relative viability (Axitinib + Bortezomib; first compound 0.05 µM)	relative viability (Axitinib + Bortezomib; first compound 0.1581 µM)	relative viability (Axitinib + Bortezomib; first compound 0.5 µM)	relative viability (Axitinib + Foretinib; first compound 0.005 µM)	relative viability (Axitinib + Foretinib; first compound 0.01581 µM)	relative viability (Axitinib + Foretinib; first compound 0.05 µM)	relative viability (Axitinib + Foretinib; first compound 0.1581 µM)	relative viability (Axitinib + Foretinib; first compound 0.5 µM)
NCI-H596	0.89	1.15	1.12	1.07	1.09	0.859	0.887	1.08	1.11	0.995	0.504	0.861	0.803	0.873	0.818
NCI-H727	0.328	0.782	0.835	0.731	0.749	1.1	0.854	1	0.868	0.795	1.23	0.837	0.896	0.982	1.15
NCI-H1993	0.514	0.494	0.609	0.467	0.505	1.21	1.3	1.14	1.18	0.913	0.771	0.731	0.823	0.956	0.845
NCI-H1437	0.626	0.605	0.563	0.586	0.364	0.515	0.542	0.55	0.446	0.589	1.3	1.22	1.28	1.13	1.25
NCI-H2023	0.237	0.211	0.23	0.201	0.242	0.968	1	1.03	0.834	1.02	0.906	0.943	0.911	0.923	0.923
HOP-62	0.233	0.167	0.232	0.218	0.263	1.02	0.776	0.668	0.891	1.21	1.07	1.14	1.06	1.09	1.3
NCI-H441	0.233	0.294	0.212		0.301	0.626	0.54	0.444	0.465	0.443	0.989	0.93	0.872	1.13	0.95
LC-2-ad	0.786	0.73	0.811	0.683	0.675	1.1	1.06	0.93	1.04	1.16	0.871	0.891	0.917	0.761	0.959
NCI-H838	0.427	0.473	0.441	0.387	0.389	0.961	1.01	0.902	0.726	0.965	1.06	1.11	1.12	0.906	1.13
EPLC-272H		0.268	0.39	0.375	0.358	0.986	0.804	0.857	0.994	0.892	0.639	0.745	0.579	0.735	0.637
NCI-H1915	0.27	0.254	0.249		0.224	0.921	0.944	1.05	0.986	0.976	1.07	1.11	1.08	1.08	1.13
NCI-H2087	0.252	0.291	0.262	0.203	0.267	0.944	0.772	0.868	0.615	1.13	1.09	0.97	0.937	1.15	1.21
LCLC-97TM1		0.272	0.235		0.121	0.732	0.419	0.585	0.515	0.736	0.847	0.977	0.926	0.896	0.918
NCI-H1734	0.497	0.463	0.502	0.441	0.556	0.935	0.974	0.879	1.01	1.06	0.928	0.853	0.923	0.944	1.08
EKVX	0.343	0.553	0.319	0.32	0.368	1.13	1.08	0.98	1.03	0.997	0.861	0.786	0.349	0.778	0.824
201T	0.866	0.866	0.815	0.701	0.74	1.14	1.08	1.06	1.07	1.11	1.07	1.06	0.972	1.17	1.21
NCI-H2085	0.523	0.419	0.473	0.473	0.503	1.15	0.966	1.06	1.04	1.05	0.979	1.05	0.884	0.9	1.07
NCI-H2405		0.678	0.708	0.592	0.668	1.03	0.982	1.03	0.946	0.958	1.03	1.04	1.13	1.03	1.15
NCI-H1650	0.382	0.442	0.593	0.32	0.406	0.209	0.208	0.191	0.195	0.22	1.32	1.12	1.24	1.19	1.31
EMC-BAC-2		0.95		0.84	0.972	1.13	1.04	1.09	1.13	1.07	1.05	1.08	1.03	1.08	1.09
